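Five compound concentrations were applied to cells in 96-well plates for 48 hours; endpoints were derived by simple linear interpolation of the resulting dose-response curve. Abbreviation: GI50, concentration required for 50% inhibition of growth. Definition used: TGI = concentration required for complete inhibition of growth.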
Assays:
Assay in all cases: DTP human tumour cell line panel, 48 h; in the data active = GI50 below about 0.43 µM; inactive = the rest
HCC-2998 colon = tested on: HCC-2998 colon
OVCAR-5 ovarian = tested on: OVCAR-5 ovarian
NCI-H23 lung = tested on: NCI-H23 lung
OVCAR-4 ovarian = tested on: OVCAR-4 ovarian
PC-3 prostate = tested on: PC-3 prostate
SK-MEL-5 melanoma = tested on: SK-MEL-5 melanoma
A498 renal = tested on: A498 renal
MCF7 breast = tested on: MCF7 breast
EKVX NSCLC = tested on: EKVX NSCLC
CCRF-CEM leukemia = tested on: CCRF-CEM leukemia
MALME-3M melanoma = tested on: MALME-3M melanoma
HS 578T breast = tested on: HS 578T breast
SNB-19 CNS = tested on: SNB-19 CNS
MDA-MB-231 breast = tested on: MDA-MB-231 breast
NCI-H522 lung = tested on: NCI-H522 lung
IGROV1 ovarian = tested on: IGROV1 ovarian
HCT-15 colon = tested on: HCT-15 colon
SW-620 colon = tested on: SW-620 colon
TK-10 renal = tested on: TK-10 renal
SF-539 CNS = tested on: SF-539 CNS
KM12 colon = tested on: KM12 colon
SNB-75 CNS = tested on: SNB-75 CNS
SK-MEL-2 melanoma = tested on: SK-MEL-2 melanoma
HOP-92 NSCLC = tested on: HOP-92 NSCLC
SK-OV-3 ovarian = tested on: SK-OV-3 ovarian
SR leukemia = tested on: SR leukemia
CAKI-1 renal = tested on: CAKI-1 renal
ACHN renal = tested on: ACHN renal
UACC-257 melanoma = tested on: UACC-257 melanoma
K-562 leukemia = tested on: K-562 leukemia
U251 CNS = tested on: U251 CNS
T-47D breast = tested on: T-47D breast
UACC-62 melanoma = tested on: UACC-62 melanoma
SF-268 CNS = tested on: SF-268 CNS
RXF 393 renal = tested on: RXF 393 renal
M14 melanoma = tested on: M14 melanoma
SN12C renal = tested on: SN12C renal
NCI-H226 lung = tested on: NCI-H226 lung
NCI-H460 lung = tested on: NCI-H460 lung
A549 NSCLC = tested on: A549 NSCLC
786-0 renal = tested on: 786-0 renal
BT-549 breast = tested on: BT-549 breast
NCI/ADR-RES ovarian = tested on: NCI/ADR-RES ovarian
HT29 colon = tested on: HT29 colon
SK-MEL-28 melanoma = tested on: SK-MEL-28 melanoma
OVCAR-8 ovarian = tested on: OVCAR-8 ovarian
UO-31 renal = tested on: UO-31 renal
SF-295 CNS = tested on: SF-295 CNS
COLO 205 colon = tested on: COLO 205 colon
HL-60(TB) leukemia = tested on: HL-60(TB) leukemia
DU-145 prostate = tested on: DU-145 prostate
MDA-MB-435 = tested on: MDA-MB-435
RPMI-8226 leukemia = tested on: RPMI-8226 leukemia
LOX IMVI melanoma = tested on: LOX IMVI melanoma
OVCAR-3 ovarian = tested on: OVCAR-3 ovarian
HCT-116 colon = tested on: HCT-116 colon

O=C(N/N=C/c1ccc(O)cc1O)c1ccc(Nc2ccnc(C(F)(F)F)c2)cc1
inactive: GI50 (HCC-2998 colon) > 75.2 µM | GI50 (OVCAR-5 ovarian) > 100 µM | GI50 (NCI-H23 lung) > 82.1 µM | GI50 (PC-3 prostate) > 45.1 µM | GI50 (SK-MEL-5 melanoma) > 100 µM | GI50 (A498 renal) > 41.3 µM | GI50 (EKVX NSCLC) 8.91 µM | GI50 (MALME-3M melanoma) 0.661 µM | GI50 (HS 578T breast) 4.4 µM | GI50 (SNB-19 CNS) 14 µM | GI50 (MDA-MB-231 breast) 5.83 µM | GI50 (NCI-H522 lung) 13.5 µM | GI50 (IGROV1 ovarian) 21.6 µM | GI50 (HCT-15 colon) > 100 µM | GI50 (SW-620 colon) > 100 µM | GI50 (TK-10 renal) 2.06 µM | GI50 (SF-539 CNS) 6.32 µM | GI50 (KM12 colon) > 100 µM | GI50 (SNB-75 CNS) 3.72 µM | GI50 (SK-MEL-2 melanoma) > 59.1 µM | GI50 (HOP-92 NSCLC) 15 µM | GI50 (SK-OV-3 ovarian) 9.67 µM | GI50 (SR leukemia) > 100 µM | GI50 (ACHN renal) 31.8 µM | GI50 (UACC-257 melanoma) > 100 µM | GI50 (K-562 leukemia) > 20.7 µM | GI50 (T-47D breast) 1.29 µM | GI50 (RXF 393 renal) 17.3 µM | GI50 (M14 melanoma) > 100 µM | GI50 (SN12C renal) 24.4 µM | GI50 (NCI-H226 lung) 26.4 µM | GI50 (NCI-H460 lung) > 100 µM | GI50 (A549 NSCLC) > 100 µM | GI50 (786-0 renal) 31.2 µM | GI50 (BT-549 breast) 22.2 µM | GI50 (NCI/ADR-RES ovarian) > 100 µM | GI50 (HT29 colon) > 100 µM | GI50 (SK-MEL-28 melanoma) 7.5 µM | GI50 (OVCAR-8 ovarian) 7.76 µM | GI50 (UO-31 renal) > 24.3 µM | GI50 (COLO 205 colon) 7.61 µM | GI50 (HL-60(TB) leukemia) > 34.1 µM | GI50 (DU-145 prostate) 21.9 µM | GI50 (MDA-MB-435) > 100 µM | GI50 (RPMI-8226 leukemia) > 100 µM | GI50 (LOX IMVI melanoma) 8.31 µM | GI50 (HCT-116 colon) 39.1 µM
active: GI50 (CCRF-CEM leukemia) 0.0913 µM | GI50 (CAKI-1 renal) 0.0533 µM | GI50 (U251 CNS) 0.248 µM | GI50 (UACC-62 melanoma) 0.0485 µM | GI50 (SF-268 CNS) 0.156 µM | GI50 (OVCAR-3 ovarian) 0.35 µM
> 45.6 µM: TGI (MALME-3M melanoma)
> 100 µM: TGI (HCC-2998 colon) | TGI (OVCAR-5 ovarian) | TGI (NCI-H23 lung) | TGI (OVCAR-4 ovarian) | TGI (PC-3 prostate) | TGI (SK-MEL-5 melanoma) | TGI (MCF7 breast) | TGI (CCRF-CEM leukemia) | TGI (IGROV1 ovarian) | TGI (HCT-15 colon) | TGI (SW-620 colon) | TGI (KM12 colon) | TGI (SK-MEL-2 melanoma) | TGI (SR leukemia) | TGI (ACHN renal) | TGI (UACC-257 melanoma) | TGI (K-562 leukemia) | TGI (T-47D breast) | TGI (UACC-62 melanoma) | TGI (M14 melanoma) | TGI (SN12C renal) | TGI (NCI-H226 lung) | TGI (NCI-H460 lung) | TGI (A549 NSCLC) | TGI (786-0 renal) | TGI (NCI/ADR-RES ovarian) | TGI (HT29 colon) | TGI (SK-MEL-28 melanoma) | TGI (OVCAR-8 ovarian) | TGI (UO-31 renal) | TGI (COLO 205 colon) | TGI (HL-60(TB) leukemia) | TGI (DU-145 prostate) | TGI (MDA-MB-435) | TGI (RPMI-8226 leukemia) | TGI (LOX IMVI melanoma) | TGI (OVCAR-3 ovarian) | TGI (HCT-116 colon)
> 75.1 µM: TGI (EKVX NSCLC)
> 47.1 µM: TGI (TK-10 renal)
26.7 µM: TGI (SNB-75 CNS)
64.1 µM: TGI (RXF 393 renal)
1.8 µM: TGI (CAKI-1 renal)
> 70 µM: TGI (NCI-H522 lung)
24.5 µM: TGI (SF-539 CNS)
> 75.6 µM: TGI (HOP-92 NSCLC)
97.4 µM: TGI (A498 renal)
79.9 µM: TGI (BT-549 breast)
57.2 µM: TGI (MDA-MB-231 breast)
> 56.5 µM: TGI (SNB-19 CNS)
23.3 µM: TGI (SF-295 CNS)
> 80.1 µM: TGI (SK-OV-3 ovarian)
33.3 µM: TGI (SF-268 CNS)
29 µM: TGI (HS 578T breast)
21.2 µM: TGI (U251 CNS)
